Data on eight molecules can be found in patent publication US8541428B2, “Heterocyclic derivatives, pharmaceutical compositions and methods of use thereof” (Technion Research and Development Foundation Ltd., priority 2006, dated 2013).

In assay [1] the target is peripheral-type benzodiazepine receptor (PBR) (Homo sapiens, UniProt P30536). The assay can be described thus: PBR binding assay, [3H]PK 11195 radio-assay (competition with radioactive standard ligand). The settings on record: for binding to PBR (in words): [3H]PK 11195 radio-assay. On the procedure: Briefly, the assay utilizes radioactive standard ligand [^3H] PK 11195 (1-(2-chlorophenyl)-N-methyl-N-(1-methyl-propyl)-3-isoquinolinecarboxamide), and measures the ability of the compounds of the invention to compete with standard ligand in binding to PBR. Total radioactive binding was determined by measuring the radioactivity of the radioactive ligand-receptor complex, obtained in the reaction of radioactive standard with the PBR. Radioactive standard and the examined ligand were added to the PBR and after some incubation time the radioactivity of the resulting ligand-receptor complexes was measured with the help of […]. This radioactivity indicates the binding of the radioactive standard to PBR. […] For an easier interpretation of our results, the binding was expressed in percentage of radioactive ligand binding. The lower the number, the better the binding of the examined ligand to PBR. Western blot analysis can be used to see which components of the PBR-complex may be important for the efficacy of the new PBR ligands, according to methods described previously [Levin E et al. 2005; Kuznetsov V et al. 2005; Weisinger G et al. Biochemistiy 2004].
Sequence of peripheral-type benzodiazepine receptor (PBR) (P30536 whole entry, species assumed): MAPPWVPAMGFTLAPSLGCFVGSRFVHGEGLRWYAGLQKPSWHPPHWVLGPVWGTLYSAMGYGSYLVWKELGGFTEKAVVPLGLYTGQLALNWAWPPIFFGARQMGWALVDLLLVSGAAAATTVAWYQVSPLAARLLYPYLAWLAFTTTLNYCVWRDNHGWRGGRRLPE

The test system of assay [2] is C6 glioma cell line. The assay can be described thus: Apoptotic levels in C6 glioma cell line (control and IBP knockdown). In kind it is cell-based, rat. The settings on record: for increase of apoptotic levels: control cells; for apoptotic effects in IBP knockdown cell line: IBP knockdown cells, FGIN-1-27 10^-5M, ErPC 10^-4M. The source says:
Cell death, including apoptosis. The Cell Death Detection ELISA^PLUS kit of Roche Molecular Biochemicals (Mannheim, Germany) was used to determine the effects on apoptosis by the new PBR ligands, in particular the one of the present description, according to methods described previously [Veenman L et al. 2005; Levin E et al. 2005]. Also, the Trypan blue method was applied in order to determine the cell viability after application of the new PBR ligands, according to methods described previously [Veenman L et al. 2005; Levin E et al. 2005]. Cell death including apoptosis of neural cells is induced by glutamate and Abeta, according to methods described previously [Michal Gaitner, M. Sc. thesis, 2004].

In assay [3] the target is PBR-complex (Homo sapiens, UniProt P30536). The note with it: displacement of [3H]Ro5 4864; cited from earlier work.
Sequence of PBR-complex (P30536 whole entry, one chain of several): as the sequence (P30536 whole entry, species assumed) above
For assay [4] the following is noted: modulation of PBR composition, seizures; cited from earlier work.
Assay [5] relates to C6 glioma cell line. In words: Mitochondrial membrane potential decrease in C6 glioma cell line (control and IBP knockdown). In kind it is cell-based, rat. The note with it: 10^-4M. On the procedure: Mitochondrial membrane potential and mitochondrial volume measurement. To see whether the new PBR ligand is able to prevent opening of the mitochondrial permeability transition pore to prevent apoptosis changes in the mitochondrial volume and potential are measured, as described previously [Maaser K, Br J Cancer 2001;85:1771-1780].

Molecules are shown by their SMILES.

One may read the Ki as a dissociation constant, usually derived from enzyme kinetics or from competition with a known ligand.

`CCN(CC)C(=O)C(C)(C)c1nc2ccccc2nc1-c1ccccc1` [Compound 5, N,N-Diethyl-2-(3-phenyl-quinoxalin-2-yl)-isobutyramide]: the “binding to PBR (in words)” value in assay [1] is “best binding”.
Turning to `CN(C)C(=O)Oc1nc(-c2ccccc2)nc2ccccc12` [Compound 9a, Dimethyl-carbamic acid 2-phenyl-quinazolin-4-yl ester], the “binding to PBR (in words)” value in assay [1] is recorded as “good binding properties”.
`CCN(CC)C(=O)Cc1nc(-c2ccccc2)nc2ccccc12` [Compound 12b, N,N-Diethyl-2-(2-phenyl-quinazolin-4-yl)-acetamide]: in assay [1] ([3H]PK 11195, the lower the number, the better the binding), the “radioactive standard remained bound to PBR (percentage of radioactive ligand binding)” value is recorded as 14%. The “binding to PBR (in words)” value in assay [1] is on record as “good binding properties”.
In the case of `CC(C)N(C(=O)n1c(-c2ccccc2)nc2ccccc2c1=O)C(C)C` [Compound 10b, 4-Oxo-2-phenyl-4H-quinazoline-3-carboxylic acid diisopropylamide], the “binding to PBR (in words)” value in assay [1] is recorded as “good binding properties”.
Consider `CCCCCCN(CCCCCC)C(=O)Cc1c(-c2ccc(F)cc2)[nH]c2ccccc12` [FGIN-1-27], for which, in assay [2] (10^-5M), the “increase of apoptotic levels” value amounted to 2 fold. In assay [2], the “apoptotic effects in IBP knockdown cell line” value is reported as “completely abolished”. Moreover, the Ki in assay [3] is 4.4 ± 0.1 nM.
As to `CCC(C)N(C)C(=O)c1cc2ccccc2c(-c2ccccc2Cl)n1` (centres unmarked) [PK 11195, 1-(2-chlorophenyl)-N-methyl-N-(1-methyl-propyl)-3-isoquinolinecarboxamide], in assay [4], the “effect on consequences of kainic acid injections” value is “prevented the effects of kainic acid injections”.
`CCCCCCCC/C=C\CCCCCCCCCCCCOP(=O)([O-])OCC[N+](C)(C)C` [ErPC]: the “increase of apoptotic levels” value in assay [2] (10^-4M) is listed as 7-8 fold. For the same molecule, the “apoptotic effects in IBP knockdown cell line” value in assay [2] was “completely abolished”. Moreover, in assay [5] (IBP knockdown cell line (as 3.7)), the “effects on mitochondrial potential in IBP knockdown cell line” value is on record as “completely abolished”. Further, the “enhancement of mitochondrial membrane potential decrease” value in assay [5] (control cells vs vehicle treated control cells) amounted to 6 fold.
For `CC(C)N(C(=O)Cc1nc(-c2ccccc2)nc2ccccc12)C(C)C` [Compound 12c, N,N-Diisopropyl-2-(2-phenyl-quinazolin-4-yl)-acetamide], in assay [1], the “binding to PBR (in words)” value is reported as “good binding properties”.
